SMILES strings stand for the structures. Where only a bound is given, the exact number is not on record here.

Data set [1] concerns the target CYP3A4 (Homo sapiens, UniProt P08684). Nature of the data set: CYP inhibition CYP3A4 (CEREP). It counts as in vitro ADME. To be noted: human, recombinant CYP3A4, probe 7-benzyloxy-4-trifluoromethylcoumarin, single concentration (typically 10 μM), read-out: CYP 3A4 (% inhibition of Control). The protocol:
All the assays were conducted at CEREP (CEREP, France and USA). Metabolic compound stability was tested in human (CEREP, Ref 607) and mouse (CEREP, Ref: 806) microsomes. Inhibition of human drug-metabolizing cytochromes P450 was tested on the five most commonly responsible enzymes of metabolism of xenobiotics, CYP1A2 (CEREP, Ref 389), CYP2C9 (CEREP, Ref 412), CYP2C19 (CEREP, Ref 390), CYP2D6 (CEREP, Ref 1338) and CYP3A4 (CEREP, Ref 391).
Briefly, CEREP's CYP inhibition assay uses traditional probe substrates, which are specific to individual CYP isoforms. 3-cyano-7-ethoxycoumarin is mainly catalyzed by CYP1A2 and CYP2C19, 3-[2-(N,N-diethyl-N-methylammonium)ethyl]-7-methoxy-4-methylcoumarin for CYP2C9 and CYP2D6 and finally, 7-benzyloxy-4-trifluoromethylcoumarin is pathway catalyzed predominantly by CYP3A4. The inhibition assays were performed with human recombinant CYP isoforms preparations. HPLC MS/MS methods are used to detect metabolites in these assays. Compounds were tested at single concentrations (typically 10 μM) and data were expressed as percent of control inhibition.

In data set [2] the target is T1, human RORγt (Homo sapiens, UniProt P51449).
T1 sequence (P51449 1-497 isoform P51449-2): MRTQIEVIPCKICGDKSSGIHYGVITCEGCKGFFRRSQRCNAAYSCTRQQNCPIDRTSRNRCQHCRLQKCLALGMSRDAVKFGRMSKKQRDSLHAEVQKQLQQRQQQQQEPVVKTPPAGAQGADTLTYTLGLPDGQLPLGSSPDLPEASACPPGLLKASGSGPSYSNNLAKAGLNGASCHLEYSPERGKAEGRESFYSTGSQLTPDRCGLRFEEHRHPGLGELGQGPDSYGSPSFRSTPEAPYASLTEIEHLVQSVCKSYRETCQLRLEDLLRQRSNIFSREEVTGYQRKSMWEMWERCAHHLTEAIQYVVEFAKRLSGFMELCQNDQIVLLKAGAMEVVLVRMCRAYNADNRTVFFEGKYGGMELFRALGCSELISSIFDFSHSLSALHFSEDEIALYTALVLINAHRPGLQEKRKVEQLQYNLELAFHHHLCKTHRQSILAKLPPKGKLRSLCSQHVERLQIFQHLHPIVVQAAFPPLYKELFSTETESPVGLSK
Nature of the data set: IL-17 secretion from EL4 murine lymphoma overexpressing human RORγt. It counts as cell-based. Also noted: expressed in transfected cells; host or cells: EL-4 murine lymphoma. As to conditions: IL-17 secretion inhibition, PMA and ionomycin stimulation, 24 h. In a few lines:
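EL4 murine lymphoma cells electroporated with hRORγt plasmid, seeded 150000 cells/well, pretreated with compound, then stimulated with PMA (10 ng/mL) and ionomycin (1 μM final) with compound for a further 24 h at 37° C. IL-17 in supernatant measured by HTRF or ELISA.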

Data set [3] addresses T2, RORγt ligand-binding domain (RORγt-LBD) (Homo sapiens, UniProt P51449).
T2 construct: 20 nM recombinantly expressed RORγ-LBD fused to GST
T2 sequence (P51449 269-508 limits assumed): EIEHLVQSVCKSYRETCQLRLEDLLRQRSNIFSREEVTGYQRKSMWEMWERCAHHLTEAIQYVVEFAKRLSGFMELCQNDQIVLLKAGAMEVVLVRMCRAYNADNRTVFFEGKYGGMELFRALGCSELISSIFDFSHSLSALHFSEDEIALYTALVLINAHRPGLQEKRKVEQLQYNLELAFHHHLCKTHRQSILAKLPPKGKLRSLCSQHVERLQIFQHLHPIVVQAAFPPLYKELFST
The data set is described as follows: Time-resolved FRET (TR-FRET) RORγt coactivator assay. The data set is classed as biochemical. As to conditions: GST-RORγ-LBD, biotinylated RIP140 peptide, coactivator displacement. For orientation: TR-FRET usually uses a lanthanide donor and a delayed reading to cut background.

CYP3A4, sequence (P08684 whole entry): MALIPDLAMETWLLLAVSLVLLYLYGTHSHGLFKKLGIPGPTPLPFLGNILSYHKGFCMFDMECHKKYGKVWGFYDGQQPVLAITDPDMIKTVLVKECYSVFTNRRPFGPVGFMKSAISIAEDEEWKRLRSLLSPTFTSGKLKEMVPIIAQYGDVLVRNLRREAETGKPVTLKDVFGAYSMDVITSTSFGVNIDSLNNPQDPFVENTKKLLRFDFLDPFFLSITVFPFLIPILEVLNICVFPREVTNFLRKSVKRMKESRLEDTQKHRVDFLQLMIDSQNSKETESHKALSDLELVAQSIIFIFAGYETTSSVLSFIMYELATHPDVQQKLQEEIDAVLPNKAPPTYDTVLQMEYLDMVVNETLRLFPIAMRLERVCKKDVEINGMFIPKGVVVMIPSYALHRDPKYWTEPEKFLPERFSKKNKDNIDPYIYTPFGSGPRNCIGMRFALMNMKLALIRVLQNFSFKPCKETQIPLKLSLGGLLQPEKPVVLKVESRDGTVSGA

The inhibition is the change of the read-out against control, counted positive when it falls. The term IC50 denotes the concentration at which inhibition is half-maximal. A low value points to inhibition by little substance. `O=C(O)CCc1c[nH]c2ccc(CC(=O)NC(c3ccccc3)c3ccc(Br)cc3N3CCCC3)cc12` (stereo not drawn) [Cpd. 50, 3-{5-[({[4-bromo-2-(pyrrolidin-1-yl)phenyl](phenyl)methyl}carbamoyl)methyl]-1H-indol-3-yl}propanoic acid]: the inhibition at 10 µM in data set [1] stood at 36.8%. The IC50 in data set [2] and in data set [3] was under 1 µM in each case.

As to `O=C(O)CCc1c[nH]c2ccc(CC(=O)NC(c3ccccc3)c3ccccc3N3CCCCC3)cc12` (stereo not drawn) [Cpd. 1, 3-{5-[({phenyl[2-(piperidin-1-yl)phenyl]methyl}carbamoyl)methyl]-1H-indol-3-yl}propanoic acid], in data set [1], the inhibition at 10 µM worked out at 19%. In addition, the IC50 in data set [2] was 1 to 10 µM; in data set [3], under 1 µM.

`O=C(O)CCc1c[nH]c2ccc(CC(=O)NC(c3ccccc3)c3ccc(C(F)(F)F)cc3N3CCCC3)cc12` (stereo not drawn) [Cpd. 48, 3-{5-[({phenyl[2-(pyrrolidin-1-yl)-4-(trifluoromethyl)phenyl]methyl}carbamoyl)methyl]-1H-indol-3-yl}propanoic acid]: the inhibition at 10 µM in data set [1] was 33.7%. In addition, the half-maximal inhibitory concentration (IC50) was 1 to 10 µM in data set [2] and under 1 µM in data set [3].

Turning to `CC(C)CC(NC(=O)Cc1ccc2[nH]cc(CCC(=O)O)c2c1)c1ccccc1N1CCCCC1` (stereo not drawn) [Cpd. 29, 3-{5-[({3-methyl-1-[2-(piperidin-1-yl)phenyl]butyl}carbamoyl)methyl]-1H-indol-3-yl}propanoic acid], the inhibition at 10 µM in data set [1] was 47.2%. In addition, the IC50 in data set [2] is 1 to 10 µM; in data set [3], under 1 µM.

Turning to `COc1ccc(C(NC(=O)Cc2ccc3[nH]cc(CCC(=O)O)c3c2)c2ccccc2)c(N2CCCCC2)c1` (stereo not drawn) [Cpd. 111, 3-{5-[({[4-methoxy-2-(piperidin-1-yl)phenyl](phenyl)methyl}carbamoyl)methyl]-1H-indol-3-yl}propanoic acid], the inhibition at 10 µM in data set [1] stood at 40.1%. The concentration for half-maximal inhibition (IC50) in data set [2] was 1 to 10 µM; in data set [3] it was under 1 µM.

As to `Cc1ccc(C(NC(=O)Cc2ccc3[nH]cc(CCC(=O)O)c3c2)c2ccccc2)c(N2CCCCC2)c1` (stereo not drawn) [Cpd. 77, 3-{5-[({[4-methyl-2-(piperidin-1-yl)phenyl](phenyl)methyl}carbamoyl)methyl]-1H-indol-3-yl}propanoic acid], the inhibition at 10 µM in data set [1] was 31.3%. For the same compound, the 50% inhibitory concentration (IC50) in data set [2] and in data set [3] was under 1 µM in each case.

As for `Cc1ccc(C(NC(=O)Cc2ccc3[nH]cc(CCC(=O)O)c3c2)c2ccccc2)c(N(C)C)c1` (stereo not drawn) [Cpd. 192, 3-{5-[({[2-(dimethylamino)-4-methylphenyl](phenyl)methyl}carbamoyl)methyl]-1H-indol-3-yl}propanoic acid], in data set [1], the inhibition at 10 µM is 30.9%. The IC50 in data set [2] and in data set [3] was under 1 µM in each case.

Consider `Cc1ccc(C(NC(=O)Cc2ccc3[nH]cc(CCC(=O)O)c3c2)c2ccccc2)c(N2CCCC2)c1` (stereo not drawn) [Cpd. 5, 3-{5-[({[4-methyl-2-(pyrrolidin-1-yl)phenyl](phenyl)methyl}carbamoyl)methyl]-1H-indol-3-yl}propanoic acid], for which the inhibition at 10 µM in data set [1] turned out to be 25.8%. In addition, the IC50 in data set [2] and in data set [3] was under 1 µM throughout.

Turning to `O=C(O)CCCc1c[nH]c2ccc(CC(=O)NC(c3ccccc3)c3ccccc3N3CCCCC3)cc12` (stereo not drawn) [Cpd. 212, 4-{5-[({phenyl[2-(piperidin-1-yl)phenyl]methyl}carbamoyl)methyl]-1H-indol-3-yl}butanoic acid], the inhibition at 10 µM in data set [1] was found to be 31%. Further, the concentration for half-maximal inhibition (IC50) in data set [2] is 1 to 10 µM; in data set [3], under 1 µM.

On to `O=C(O)CCc1c[nH]c2ccc(CC(=O)NC(c3cccc(F)c3)c3ccccc3N3CCCCC3)cc12` (stereo not drawn) [Cpd. 3, 3-[5-({[(3-fluorophenyl)[2-(piperidin-1-yl)phenyl]methyl]carbamoyl}methyl)-1H-indol-3-yl]propanoic acid], for which the inhibition at 10 µM in data set [1] came out at 60.9%. Also, the half-maximal inhibitory concentration (IC50) was 1 to 10 µM in data set [2] and under 1 µM in data set [3].
